Measured values published in the NIST ThermoML archive (doi:10.1016/j.fluid.2018.10.024).
± gives the expanded uncertainty stated by the source.

Experiments:
[1] = 101.33 kPa, Liquid; for viscosity: Capillary tube (Ostwald / Ubbelohde) method; for mass density: Vibrating tube method
[2] = refractive index (Na D-line) (dimensionless); details: 101.33 kPa, Liquid, Standard Abbe refractometry
[3] = refractive index (Na D-line) (dimensionless); xn = mol fraction of the nth substance listed; details: 101 kPa, Liquid, Standard Abbe refractometry, x1 = 1
[4] = xn = mol fraction of the nth substance listed; details: 101 kPa, Liquid, x1 = 1; for viscosity: Capillary tube (Ostwald / Ubbelohde) method; for mass density: Vibrating tube method

SMILES	viscosity ([1]; 298.15 K)	mass density ([1]; 298.15 K)	viscosity ([1]; 303.15 K)	mass density ([1]; 303.15 K)	viscosity ([1]; 308.15 K)	mass density ([1]; 308.15 K)	viscosity ([1]; 313.15 K)	mass density ([1]; 313.15 K)	viscosity ([1]; 318.15 K)	mass density ([1]; 318.15 K)	refractive index ([2]; 298.15 K)	refractive index ([2]; 303.15 K)	refractive index ([2]; 308.15 K)	refractive index ([2]; 313.15 K)	refractive index ([2]; 318.15 K)	refractive index ([3]; 298.15 K)	refractive index ([3]; 303.15 K)	refractive index ([3]; 308.15 K)	refractive index ([3]; 313.15 K)	refractive index ([3]; 318.15 K)	other results
CO [methanol]	0.5467 ± 0.0037 mPa·s	787.21 ± 0.12 kg/m3	0.5058 ± 0.0035 mPa·s	782.75 ± 0.12 kg/m3	0.4818 ± 0.0034 mPa·s	777.56 ± 0.12 kg/m3	0.4484 ± 0.0032 mPa·s	772.97 ± 0.12 kg/m3	0.4208 ± 0.0031 mPa·s	768.03 ± 0.13 kg/m3	1.3271 ± 0.0006	1.3245 ± 0.0006	1.323 ± 0.0006	1.3208 ± 0.0006	1.3184 ± 0.0006	–	–	–	–	–	–
ClC(Cl)Cl [trichloromethane]	0.5916 mPa·s	1478.75 ± 0.38 kg/m3	0.558 mPa·s	1469.16 ± 0.37 kg/m3	0.5333 mPa·s	1460.01 ± 0.37 kg/m3	0.5072 mPa·s	1450.39 ± 0.36 kg/m3	0.4849 mPa·s	1440.03 ± 0.36 kg/m3	1.4422 ± 0.0006	1.4397 ± 0.0006	1.4356 ± 0.0006	1.4338 ± 0.0006	1.4297 ± 0.0006	–	–	–	–	–	–
CC(C)=O [acetone] + ClC(Cl)Cl	–	–	–	–	–	–	–	–	–	–	–	–	–	–	–	1.3558 ± 0.0006	1.3534 ± 0.0006	1.3509 ± 0.0006	1.349 ± 0.0006	1.3449 ± 0.0006	viscosity ([4]; 298.15 K): 0.3034 ± 0.0024 mPa·s; mass density ([4]; 298.15 K): 784.41 ± 0.12 kg/m3; viscosity ([4]; 303.15 K): 0.2966 ± 0.0024 mPa·s; mass density ([4]; 303.15 K): 778.66 ± 0.12 kg/m3; viscosity ([4]; 308.15 K): 0.2831 ± 0.0024 mPa·s; mass density ([4]; 308.15 K): 773.08 ± 0.13 kg/m3; viscosity ([4]; 313.15 K): 0.2689 ± 0.0023 mPa·s; mass density ([4]; 313.15 K): 766.95 ± 0.13 kg/m3; viscosity ([4]; 318.15 K): 0.2511 ± 0.0022 mPa·s; mass density ([4]; 318.15 K): 761.26 ± 0.13 kg/m3
CO [methanol] + CC(C)=O	–	–	–	–	–	–	–	–	–	–	–	–	–	–	–	1.3271 ± 0.0006	1.3245 ± 0.0006	1.323 ± 0.0006	1.3208 ± 0.0006	1.3184 ± 0.0006	viscosity ([4]; 298.15 K): 0.5467 ± 0.0037 mPa·s; mass density ([4]; 298.15 K): 787.21 ± 0.12 kg/m3; viscosity ([4]; 303.15 K): 0.5058 ± 0.0035 mPa·s; mass density ([4]; 303.15 K): 782.75 ± 0.12 kg/m3; viscosity ([4]; 308.15 K): 0.4818 ± 0.0034 mPa·s; mass density ([4]; 308.15 K): 777.56 ± 0.12 kg/m3; viscosity ([4]; 313.15 K): 0.4484 ± 0.0032 mPa·s; mass density ([4]; 313.15 K): 772.97 ± 0.12 kg/m3; viscosity ([4]; 318.15 K): 0.4208 ± 0.0031 mPa·s; mass density ([4]; 318.15 K): 768.03 ± 0.12 kg/m3
CC(C)=O [acetone]	0.3034 ± 0.0024 mPa·s	784.41 ± 0.12 kg/m3	0.2966 ± 0.0024 mPa·s	778.66 ± 0.13 kg/m3	0.2831 ± 0.0023 mPa·s	773.08 ± 0.13 kg/m3	0.2689 ± 0.0023 mPa·s	766.95 ± 0.13 kg/m3	0.2511 ± 0.0022 mPa·s	761.26 ± 0.13 kg/m3	1.3558 ± 0.0006	1.3534 ± 0.0006	1.3509 ± 0.0006	1.349 ± 0.0006	1.3449 ± 0.0006	–	–	–	–	–	–
CO [methanol] + ClC(Cl)Cl	–	–	–	–	–	–	–	–	–	–	–	–	–	–	–	1.3271 ± 0.0006	1.3245 ± 0.0006	1.323 ± 0.0006	1.3208 ± 0.0006	1.3184 ± 0.0006	viscosity ([4]; 298.15 K): 0.5467 ± 0.0037 mPa·s; mass density ([4]; 298.15 K): 787.21 ± 0.12 kg/m3; viscosity ([4]; 303.15 K): 0.5058 ± 0.0035 mPa·s; mass density ([4]; 303.15 K): 782.75 ± 0.12 kg/m3; viscosity ([4]; 308.15 K): 0.4765 ± 0.0034 mPa·s; mass density ([4]; 308.15 K): 777.56 ± 0.12 kg/m3; viscosity ([4]; 313.15 K): 0.4426 ± 0.0032 mPa·s; mass density ([4]; 313.15 K): 772.97 ± 0.12 kg/m3; viscosity ([4]; 318.15 K): 0.4153 ± 0.003 mPa·s; mass density ([4]; 318.15 K): 768.03 ± 0.12 kg/m3
